Results: patent US20090062401A1, “DECALINE-DERIVED COMPOUNDS AS […] ACTIVE AGENTS” (UNIVERSITAT DORTMUND, priority 2004, published 2009)
Where two headings read alike, the source gives them in different places.

Experiments:
Type in all cases: biochemical
PTP1B = molecular target: T1, PTP1B (Homo sapiens, UniProt P18031); assay: PTP1B phosphatase inhibition, general phosphatase assay using para-nitrophenylphosphate; conditions: read-out: IC50 Target PTP1B
T1 sequence (P18031 1-435): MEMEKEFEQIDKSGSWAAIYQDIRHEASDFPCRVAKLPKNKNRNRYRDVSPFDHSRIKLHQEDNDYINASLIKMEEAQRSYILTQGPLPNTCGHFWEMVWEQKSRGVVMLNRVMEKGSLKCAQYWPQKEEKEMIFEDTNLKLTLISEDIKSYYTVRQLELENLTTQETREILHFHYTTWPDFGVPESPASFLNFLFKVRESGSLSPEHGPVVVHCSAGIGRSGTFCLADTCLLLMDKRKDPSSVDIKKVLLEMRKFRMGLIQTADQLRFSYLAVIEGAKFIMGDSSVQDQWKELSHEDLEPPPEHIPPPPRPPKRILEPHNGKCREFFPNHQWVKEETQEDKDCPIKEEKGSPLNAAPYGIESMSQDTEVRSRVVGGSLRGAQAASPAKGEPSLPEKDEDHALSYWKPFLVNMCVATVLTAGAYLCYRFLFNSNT
Excerpt: (§1) Assays protocols for the other enzymes mentioned herein (MtPTPA, PP1, VHR, PTP1B) are disclosed in Schweizer R A S, Atanasov, G A, Frey B M, and Odermatt A, Mol. Cell. Endocrinol. 2003, 212, 41-49 and Barratte, B., Meijer L., Galaktionov K. & Beach D, Anticancer Res. 1992, 12, 873-880. For determination of the phosphatase activity, a general phosphatase assay using para-nitrophenylphosphate was applied.

Cdc25A = molecular target: T2, Cdc25A (Homo sapiens, UniProt P30304); assay: Cdc25A phosphatase inhibition
T2 sequence (P30304 1-524): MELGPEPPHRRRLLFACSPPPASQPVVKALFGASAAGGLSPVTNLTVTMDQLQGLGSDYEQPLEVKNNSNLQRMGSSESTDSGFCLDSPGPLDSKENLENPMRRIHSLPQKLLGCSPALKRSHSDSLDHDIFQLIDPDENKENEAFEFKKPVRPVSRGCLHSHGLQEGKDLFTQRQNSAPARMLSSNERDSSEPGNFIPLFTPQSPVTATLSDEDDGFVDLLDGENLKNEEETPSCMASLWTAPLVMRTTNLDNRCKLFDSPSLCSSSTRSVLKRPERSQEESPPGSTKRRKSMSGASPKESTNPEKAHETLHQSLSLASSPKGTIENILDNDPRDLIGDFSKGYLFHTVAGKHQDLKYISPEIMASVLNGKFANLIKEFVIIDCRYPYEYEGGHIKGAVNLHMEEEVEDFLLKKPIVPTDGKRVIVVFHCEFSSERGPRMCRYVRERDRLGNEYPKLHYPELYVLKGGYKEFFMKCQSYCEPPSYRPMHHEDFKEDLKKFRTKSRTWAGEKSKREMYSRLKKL
Excerpt: Assay protocols for Cdc25A, 11βHSD1, 11βHSD2, and AChE are described in detain in the publication of Koch M A, Wittenberg L O, Basu S, Jeyaraj D A, Gourzoulidou E, Reinecke K, Odermatt A, Waldmann H (Proc. Natl. Acad. Sci. U.S.A. 2004 Nov. 30; 101(48):16721-6) and in Koch M A et al., Proc. Natl. Acad. Sci. U.S.A. 2005 Nov. 29; 102 (48):17272-7.

VHR = VHR (Homo sapiens, UniProt P51452); assay: VHR phosphatase inhibition, general phosphatase assay using para-nitrophenylphosphate; conditions: read-out: IC50 Target VHR
Sequence of VHR (P51452 whole entry, species assumed): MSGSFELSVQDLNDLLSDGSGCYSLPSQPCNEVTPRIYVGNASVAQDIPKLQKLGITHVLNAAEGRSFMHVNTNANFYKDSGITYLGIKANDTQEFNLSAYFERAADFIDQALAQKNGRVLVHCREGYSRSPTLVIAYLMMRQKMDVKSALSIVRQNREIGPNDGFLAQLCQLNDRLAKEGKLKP
Excerpt: as §1

IC50 (PTP1B) | IC50 (VHR) | SMILES | IC50 (Cdc25A; read-out: IC50 Target Cdc25A) | IC50 (Cdc25A)
10 to 50 µM | 10 to 50 µM | COc1ccc(/C=C2\C[C@@]3(C)C(=C(C)C2=O)CCC[C@@H]3O)c(C)c1 [Compound 16, (3E,4aS,5S)-3-(4-Methoxy-2-methylbenzyliden)-4,4a,5,6,7,8-hexahydro-5-hydroxy-1,4a-dimethylnaphthalen-2(3H)-one] | – | –
10 to 50 µM | 10 to 50 µM | CC1=C2CCC[C@H](O)[C@@]2(C)C/C(=C\c2cccs2)C1=O [Compound 30, (3E,4aS,5S)-4,4a,5,6,7,8-Hexahydro-5-hydroxy-1,4a-dimethyl-3-[(thiophen-2-yl)methylen]naphthalen-2(3H)-one] | – | –
10 to 50 µM | 10 to 50 µM | CC1=C2CCC[C@H](O)[C@@]2(C)C/C(=C\c2sccc2C)C1=O [Compound 33] | – | –
– | – | C#CCCCCCC#Cc1ccc(/C=C2\C[C@@]3(C)C(=C(C)C2=O)CCC[C@@H]3O)cc1 [Compound 42, (3E,4aS,5S)-3-[4-(Nona-1,8-diinyl)benzyliden]-4,4a,5,6,7,8-hexahydro-5-hydroxy-1,4a-dimethyl-naphthalen-2(3H)-one] | < 10 µM | –
10 to 50 µM | 10 to 50 µM | CCCCCCCCCCCCCCC#Cc1ccc(/C=C2\C[C@@]3(C)C(=C(C)C2=O)CCC[C@@H]3O)cc1 [Compound 43, (3E,4aS,5S)-3-[4-(Hexadec-1-inyl)benzyliden]-4,4a,5,6,7,8-hexahydro-5-hydroxy-1,4a-dimethyl-naphthalen-2(3H)-one] | – | –
– | – | CC1=C2CCC[C@H](O)[C@@]2(C)C/C(=C\c2ccc(C#CC3(O)CCCCC3)cc2)C1=O [Compound 48, (3E,4aS,5S)-3-{4-[2-(1-Hydroxycyclohexyl)ethinyl]benzyliden}-4,4a,5,6,7,8-hexahydro-5-hydroxy-1,4a-dimethylnaphthalen-2(3H)-one] | 10 to 50 µM | –
10 to 50 µM | 10 to 50 µM | CC1=C2CCC[C@H](O)[C@@]2(C)C/C(=C\C[C@]2(O)C[C@@H](O)[C@@H](O)[C@H](O)C2)C1=O [Compound 58, (3E,4aS,5S)-4,4a,5,6,7,8-Hexahydro-5-hydroxy-3-{2-[(1S,3R,4S,5R)-1,3,4,5-tetrahydroxycyclohexyl]-ethyliden}-1,4a-dimethylnaphthalen2(3H)-one] | – | –
– | – | C=C(C)C#Cc1ccc(/C=C2\C[C@@]3(C)C(=C(C)C2=O)CCC[C@@H]3O)cc1 [Compound 71, (3E,4aS,5S)-3-[4-(3-Methylbut-3-en-1-inyl)benzyliden]-4,4a,5,6,7,8-hexahydro-5-hydroxy-1,4a-dimethylnaphthalen-2(3H)-on] | 10 to 50 µM | –
– | – | CC1=C2CCC[C@H](O)[C@@]2(C)C/C(=C\c2ccc(C#CCCCc3ccccc3)cc2)C1=O [Compound 72, (3E,4aS,5S)-3-[4-(5-Phenylpent-1-inyl)benzyliden]-4,4a,5,6,7,8-hexahydro-5-hydroxy-1,4a-dimethylnaphthalen-2(3H)-one] | 10 to 50 µM | –
– | – | CC1C(=O)/C(=C/c2cccn2C)C[C@@]2(C)C1CCC[C@@H]2O (stereo partly drawn) [Compound 86, (E,4aS,5S)-Octahydro-5-hydroxy-1,4a-dimethyl-3-[(1-methyl-1H-pyrrol-2-yl)methylen]naphthalen-2(1H)-one] | 10 to 50 µM | –
– | – | CCCCCCC#Cc1ccc(/C=C2\C[C@@]3(C)C(=C(C)C2=O)CCC[C@@H]3O)cc1 [Compound 91, (3E,4aS,5S)-3-[4-(Oct-1-inyl)benzyliden]-4,4a,5,6,7,8-hexahydro-5-hydroxy-1,4a-dimethylnaphthalen-2(3H)-one] | < 10 µM | –
– | – | CCCCCCC#Cc1ccccc1/C=C1\CCC2C(C)C(O)CC[C@]2(C)C1NC1CCCCC1 (stereo partly drawn) [Compound 323, (E,4aS)-6-[2-(Oct-1-inyl)benzyliden]-5-(cyclohexylamino)-decahydro-1,4a-dimethylnaphthalen-2-ol] | 10 to 50 µM | –
– | – | C=CC[C@@]12C(=CC(=O)/C(=C/c3ccccc3C#CCCCCCCCCCCCCCC)[C@@H]1C)CCC[C@@H]2O [Compound 326, (3E,4R,4aS,5S)-3-[2-(Hexadec-1-inyl)benzyliden]-4a-allyl-4,4a,5,6,7,8-hexahydro-5-hydroxy-4-methylnaphthalen-2(3H)on] | 10 to 50 µM | –
– | – | CCCCCCCCCCCCCCC#Cc1ccccc1/C=C1\C[C@@]2(C)C(=CC1=O)CCC[C@@H]2O [Compound 332, (3E,4aS,5S)-3-[2-(Hexadec-1-inyl)benzyliden]-4,4a,5,6,7,8-hexahydro-5-hydroxy-4a-methylnaphthalen-2(3H)-one] | 10 to 50 µM | –
– | – | COCC#Cc1ccccc1/C=C1\C[C@@]2(C)C(=CC1=O)CCC[C@@H]2O [Compound 334, (3E,4aS,5S)-3-[2-(3-Methoxyprop-1-inyl)benzyliden]-4,4a,5,6,7,8-hexahydro-5-hydroxy-4a-methylnaphthalen-2(3H)-one] | 10 to 50 µM | –
– | – | COCC#Cc1cccc(/C=C2\C[C@@]3(C)C(CCC[C@@H]3O)C(C)C2NC2CCCCC2)c1 (stereo partly drawn) [Compound 346, (E,1S,8aS)-7-[3-(3-Methoxyprop-1-inyl)benzyliden]-6-(cyclohexylamino)-decahydro-5,8a-dimethylnaphthalen-1-ol] | 10 to 50 µM | –
– | – | C=CC[C@]12C(CCC[C@@H]1O)C(C)C(=O)/C(=C/c1cccc(C#CCOC)c1)[C@@H]2C (stereo partly drawn) [Compound 349, (E,4R,4aR,5S)-3-[3-(3-Methoxyprop-1-inyl)benzyliden]-4a-allyl-octahydro-5-hydroxy-1,4-dimethylnaphthalen-2(1H)-one] | 10 to 50 µM | –
10 to 50 µM | 10 to 50 µM | CC1=C2CCC[C@H](O)[C@@]2(C)CC(=Cc2ccc(C#Cc3ccncc3)cc2)C1=O [Compound 395, (4aS,5S)-5-Hydroxy-1,4a-dimethyl-3-(4-pyridin-4-ylethynyl-benzylidene)-4,4a,5,6,7,8-hexahydro-3H-naphthalen-2-one] | – | –
– | – | CC1=C2CCCC3(OCCO3)C2(C)CC/C1=C1/C=CC(=O)O1 (stereo not shown) [Compound 415, (5E)-5-(5′,8a′-dimethyl-3′,4′,8′,8a′-tetrahydro-2′H-spiro[1,3-dioxolane-2,1′-naphthalen]-6′(7′H)-ylidene)furan-2(5H)-one] | 10 to 50 µM | –
10 to 50 µM | – | CC1=C2CC(C(C)C)CC(O)C2CCC1=O (stereo not shown) [Compound 417, 5-Hydroxy-7-isopropyl-1-methyl-4,4a,5,6,7,8,-hexahydro-3H-naphthalen-2-one] | – | –

SMILES | IC50 (PTP1B) | IC50 (VHR) | IC50 (Cdc25A; read-out: IC50 Target Cdc25A) | IC50 (Cdc25A)
CC1=C2CCC[C@H](O)[C@@]2(C)C/C(=C\c2ccoc2)C1=O [Compound 8, (3E,4aS,5S)-3-[(Furan-3-yl)methylen]-4,4a,5,6,7,8-hexahydro-5-hydroxy-1,4a-dimethylnaphthalen-2(3H)-one] | 10 to 50 µM | < 10 µM | 10 to 50 µM | –
CC1=C2CCC[C@H](O)[C@@]2(C)C/C(=C\c2ccc(C#CC(C)OC(C)(C)C)cc2)C1=O (stereo partly drawn) [Compound 38, (3E,4aS,5S)-3-[4-(3-tert-Butoxybut-1-inyl)benzyliden]-4,4a,5,6,7,8-hexahydro-5-hydroxy-1,4a-dimethylnaphthalen-2(3H)-one] | 10 to 50 µM | 10 to 50 µM | < 10 µM | –
C[C@]12C/C(=C\c3ccc(C#C[Si](C)(C)C)cc3)C(=O)C=C1CCC[C@@H]2O [Compound 137, (3E,4aS,5S)-3-{4-[2-(Trimethylsilyl)ethinyl]benzyliden}-4,4a,5,6,7,8-hexahydro-5-hydroxy-4a-methylnaphthalen-2(3H)-one] | – | 10 to 50 µM | – | < 10 µM
C[C@]12C/C(=C\c3ccc(C#CC4(O)CCCCC4)cc3)C(=O)C=C1CCC[C@@H]2O [Compound 138, (3E,4aS,5S)-3-{4-[2-(1-Hydroxycyclohexyl)ethinyl]benzyliden}-4,4a,5,6,7,8-hexahydro-5-hydroxy-4a-methylnaphthalen-2(3H)-one] | – | 10 to 50 µM | < 10 µM | –
CC1=C2CCCC(=O)[C@@]2(C)CC/C1=C1/C=CC(=O)O1 [Compound 401, (2E,4aS)-5-(1,4a-Dimethyl-5-oxo-4,4a,5,6,7,8-hexahydro-3H-naphthalen-2-ylidene)-5H-furan-2-one] | – | 10 to 50 µM | 10 to 50 µM | –
CCCCC1(C)C(=O)CC[C@@]2(C)C1CCC[C@@H]2O (stereo partly drawn) [Compound 414, (4aS,5S)-1-Butyl-5-hydroxy-1,4a-dimethyl-1-octahydro-naphthalen-2-one] | 10 to 50 µM | – | 10 to 50 µM | –
